The text below walks through data of patent publication US7705025B2, “Histamine H3 receptor agents, preparation and therapeutic uses” (Eli Lilly and Company, priority 2004, dated 2010).

Usually Ki stands for a dissociation constant, usually derived from enzyme kinetics or from competition with a known ligand.

The target in the experiment is T1, human histamine 3 receptor (Homo sapiens, UniProt Q9Y5N1).
T1 construct: expressed in transfected cells; membranes
Briefly: H3R binding assay (competitive inhibition SPA, [3H] α methylhistamine). The following applies: membranes of HEK293 clone H3R8. The source says:
The compounds of the present invention can readily be evaluated by using a competitive inhibition Scintillation Proximity Assay (SPA) based on a H3R binding assay using [3H] α methylhistamine as ligand. Stable cell lines, including but not limited to HEK can be transfected with cDNA coding for H3R to prepare membranes used for the binding assay. The technique is illustrated below (Preparation of Histamine Receptor Subtype Membranes) for the histamine receptor subtypes.
cDNA for the human histamine 1 receptor (H1R) was cloned into a mammalian expression vector containing the CMV promoter (pcDNA3.1(+), Invitogen) and transfected into HEK293 cells using the FuGENE Tranfection Reagent (Roche Diagnostics Corporation). Transfected cells were selected using G418 (500 μ/mL). Colonies that survived selection were grown and tested for histamine binding to cells grown in 96-well dishes using a scintillation proximity assay (SPA) based radioligand binding assay. Briefly, cells, representing individual selected clones, were grown as confluent monolayers in 96-well dishes (Costar Clear Bottom Plates, #3632) by seeding wells with 25,000 cells and growing for 48 hours (37° C., 5% CO2). […] Plates were counted in a Wallac Trilux 1450 Microbeta scintillation counter. […]
cDNA for the human histamine 3 receptor was cloned and expressed as described in (A. Preparation H1R membranes), above. […]

T1 sequence (Q9Y5N1 whole entry): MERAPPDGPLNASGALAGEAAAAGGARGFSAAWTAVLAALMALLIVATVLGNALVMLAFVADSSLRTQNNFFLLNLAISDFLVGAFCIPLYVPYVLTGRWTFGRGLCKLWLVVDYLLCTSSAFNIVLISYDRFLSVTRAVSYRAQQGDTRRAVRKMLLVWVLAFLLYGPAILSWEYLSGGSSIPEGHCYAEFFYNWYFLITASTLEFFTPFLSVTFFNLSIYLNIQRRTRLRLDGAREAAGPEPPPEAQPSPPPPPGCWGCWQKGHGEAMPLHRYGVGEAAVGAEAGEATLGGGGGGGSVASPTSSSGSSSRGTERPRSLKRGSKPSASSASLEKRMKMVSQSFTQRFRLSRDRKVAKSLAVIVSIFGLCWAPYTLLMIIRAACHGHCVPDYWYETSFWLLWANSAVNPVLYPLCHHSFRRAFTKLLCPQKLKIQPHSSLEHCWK

The compound `O=C(c1ccc(-c2cccs2)nc1)N1CCC[C@H]1CN1CCCC1` had a Ki of 13.8 nM.

`O=C(c1ccc(-c2nc(-c3cccnc3)cs2)cc1)N1CCC[C@H]1CN1CCCC1` had a Ki of 3.1 nM.
